Experimental data from paper PMC12748989 (Nature Communications, 2025).

Columns and labels:
[1] = tested on: PBMC; details: 12.5 µM
[2] = tested on: MDA-MB-231 cells

| Structure (SMILES) | Average (percentage cell inhibition), Mastoparan PBMC [1] | Average (percentage cell inhibition), Dmastoparan MDA-MB231 12.5uM [2] |
| --- | --- | --- |
| CC[C@H](C)[C@H](N)C(=O)N[C@@H](CC(N)=O)C(=O)N[C@@H](Cc1c[nH]cn1)C(=O)N[C@@H](CCCCN)C(=O)N[C@@H](C)C(=O)N[C@@H](CC(C)C)C(=O)N[C@@H](C)C(=O)N[C@@H](C)C(=O)N[C@@H](CC(C)C)C(=O)N[C@@H](C)C(=O)N[C@@H](CCCCN)C(=O)N[C@@H](CCCCN)C(=O)N[C@H](C(=O)N[C@@H](CC(C)C)C(N)=O)[C@@H](C)CC [H3] | -4.438% | 10.8919% |
| CC[C@H](C)[C@H](N)C(=O)N[C@@H](CC(N)=O)C(=O)N[C@@H](CC(C)C)C(=O)N[C@@H](Cc1c[nH]cn1)C(=O)N[C@@H](C)C(=O)N[C@@H](CC(C)C)C(=O)N[C@@H](C)C(=O)N[C@@H](C)C(=O)N[C@@H](CC(C)C)C(=O)N[C@@H](C)C(=O)N[C@@H](CCCCN)C(=O)N[C@@H](CCCCN)C(=O)N[C@H](C(=O)N[C@@H](CC(C)C)C(N)=O)[C@@H](C)CC [H4] | -2.6725% | 21.387% |
| CC[C@H](C)[C@H](N)C(=O)N[C@@H](CC(N)=O)C(=O)N[C@@H](CC(C)C)C(=O)N[C@@H](CCCCN)C(=O)N[C@@H](Cc1c[nH]cn1)C(=O)N[C@@H](CC(C)C)C(=O)N[C@@H](C)C(=O)N[C@@H](C)C(=O)N[C@@H](CC(C)C)C(=O)N[C@@H](C)C(=O)N[C@@H](CCCCN)C(=O)N[C@@H](CCCCN)C(=O)N[C@H](C(=O)N[C@@H](CC(C)C)C(N)=O)[C@@H](C)CC [H5] | 3.516% | 26.5106% |
| CC[C@H](C)[C@H](N)C(=O)N[C@@H](CC(N)=O)C(=O)N[C@@H](CC(C)C)C(=O)N[C@@H](CCCCN)C(=O)N[C@@H](C)C(=O)N[C@@H](Cc1c[nH]cn1)C(=O)N[C@@H](C)C(=O)N[C@@H](C)C(=O)N[C@@H](CC(C)C)C(=O)N[C@@H](C)C(=O)N[C@@H](CCCCN)C(=O)N[C@@H](CCCCN)C(=O)N[C@H](C(=O)N[C@@H](CC(C)C)C(N)=O)[C@@H](C)CC [H6] | -12.6494% | 1.275% |
| CC[C@H](C)[C@H](N)C(=O)N[C@@H](CC(N)=O)C(=O)N[C@@H](CC(C)C)C(=O)N[C@@H](CCCCN)C(=O)N[C@@H](C)C(=O)N[C@@H](CC(C)C)C(=O)N[C@@H](Cc1c[nH]cn1)C(=O)N[C@@H](C)C(=O)N[C@@H](CC(C)C)C(=O)N[C@@H](C)C(=O)N[C@@H](CCCCN)C(=O)N[C@@H](CCCCN)C(=O)N[C@H](C(=O)N[C@@H](CC(C)C)C(N)=O)[C@@H](C)CC [H7] | 4.935% | 37.3401% |
| CC[C@H](C)[C@H](N)C(=O)N[C@@H](CC(N)=O)C(=O)N[C@@H](CC(C)C)C(=O)N[C@@H](CCCCN)C(=O)N[C@@H](C)C(=O)N[C@@H](CC(C)C)C(=O)N[C@@H](C)C(=O)N[C@@H](Cc1c[nH]cn1)C(=O)N[C@@H](CC(C)C)C(=O)N[C@@H](C)C(=O)N[C@@H](CCCCN)C(=O)N[C@@H](CCCCN)C(=O)N[C@H](C(=O)N[C@@H](CC(C)C)C(N)=O)[C@@H](C)CC [H8] | -4.293% | 53.8201% |
| CC[C@H](C)[C@H](N)C(=O)N[C@@H](CC(N)=O)C(=O)N[C@@H](CC(C)C)C(=O)N[C@@H](CCCCN)C(=O)N[C@@H](C)C(=O)N[C@@H](CC(C)C)C(=O)N[C@@H](C)C(=O)N[C@@H](C)C(=O)N[C@@H](Cc1c[nH]cn1)C(=O)N[C@@H](C)C(=O)N[C@@H](CCCCN)C(=O)N[C@@H](CCCCN)C(=O)N[C@H](C(=O)N[C@@H](CC(C)C)C(N)=O)[C@@H](C)CC [H9] | -4.349% | 18.6976% |
| CC[C@H](C)[C@H](N)C(=O)N[C@@H](CC(N)=O)C(=O)N[C@@H](CC(C)C)C(=O)N[C@@H](CCCCN)C(=O)N[C@@H](C)C(=O)N[C@@H](CC(C)C)C(=O)N[C@@H](C)C(=O)N[C@@H](C)C(=O)N[C@@H](CC(C)C)C(=O)N[C@@H](Cc1c[nH]cn1)C(=O)N[C@@H](CCCCN)C(=O)N[C@@H](CCCCN)C(=O)N[C@H](C(=O)N[C@@H](CC(C)C)C(N)=O)[C@@H](C)CC [H10] | -10.8779% | -5.968% |
| CC[C@H](C)[C@H](N)C(=O)N[C@@H](CC(N)=O)C(=O)N[C@@H](CC(C)C)C(=O)N[C@@H](CCCCN)C(=O)N[C@@H](C)C(=O)N[C@@H](CC(C)C)C(=O)N[C@@H](C)C(=O)N[C@@H](C)C(=O)N[C@@H](CC(C)C)C(=O)N[C@@H](C)C(=O)N[C@@H](Cc1c[nH]cn1)C(=O)N[C@@H](CCCCN)C(=O)N[C@H](C(=O)N[C@@H](CC(C)C)C(N)=O)[C@@H](C)CC [H11] | -0.6179% | 27.1728% |
| CC[C@H](C)[C@H](N)C(=O)N[C@@H](CC(N)=O)C(=O)N[C@@H](CC(C)C)C(=O)N[C@@H](CCCCN)C(=O)N[C@@H](C)C(=O)N[C@@H](CC(C)C)C(=O)N[C@@H](C)C(=O)N[C@@H](C)C(=O)N[C@@H](CC(C)C)C(=O)N[C@@H](C)C(=O)N[C@@H](CCCCN)C(=O)N[C@@H](Cc1c[nH]cn1)C(=O)N[C@H](C(=O)N[C@@H](CC(C)C)C(N)=O)[C@@H](C)CC [H12] | 0.5315% | 31.16% |
| CC[C@H](C)[C@H](N)C(=O)N[C@@H](CC(N)=O)C(=O)N[C@@H](CC(C)C)C(=O)N[C@@H](CCCCN)C(=O)N[C@@H](C)C(=O)N[C@@H](CC(C)C)C(=O)N[C@@H](C)C(=O)N[C@@H](C)C(=O)N[C@@H](CC(C)C)C(=O)N[C@@H](C)C(=O)N[C@@H](CCCCN)C(=O)N[C@@H](CCCCN)C(=O)N[C@@H](Cc1c[nH]cn1)C(=O)N[C@@H](CC(C)C)C(N)=O [H13] | -0.416% | 24.5783% |
| CC[C@H](C)[C@H](N)C(=O)N[C@@H](CC(N)=O)C(=O)N[C@@H](CC(C)C)C(=O)N[C@@H](CCCCN)C(=O)N[C@@H](C)C(=O)N[C@@H](CC(C)C)C(=O)N[C@@H](C)C(=O)N[C@@H](C)C(=O)N[C@@H](CC(C)C)C(=O)N[C@@H](C)C(=O)N[C@@H](CCCCN)C(=O)N[C@@H](CCCCN)C(=O)N[C@H](C(=O)N[C@@H](Cc1c[nH]cn1)C(N)=O)[C@@H](C)CC [H14] | -11.4515% | 14.7055% |
| CC[C@H](C)[C@H](N)C(=O)N[C@H](C(=O)N[C@@H](CC(C)C)C(=O)N[C@@H](CCCCN)C(=O)N[C@@H](C)C(=O)N[C@@H](CC(C)C)C(=O)N[C@@H](C)C(=O)N[C@@H](C)C(=O)N[C@@H](CC(C)C)C(=O)N[C@@H](C)C(=O)N[C@@H](CCCCN)C(=O)N[C@@H](CCCCN)C(=O)N[C@H](C(=O)N[C@@H](CC(C)C)C(N)=O)[C@@H](C)CC)[C@@H](C)CC [I2] | 42.1735% | 82.9517% |
| CC[C@H](C)[C@H](N)C(=O)N[C@@H](CC(N)=O)C(=O)N[C@H](C(=O)N[C@@H](CCCCN)C(=O)N[C@@H](C)C(=O)N[C@@H](CC(C)C)C(=O)N[C@@H](C)C(=O)N[C@@H](C)C(=O)N[C@@H](CC(C)C)C(=O)N[C@@H](C)C(=O)N[C@@H](CCCCN)C(=O)N[C@@H](CCCCN)C(=O)N[C@H](C(=O)N[C@@H](CC(C)C)C(N)=O)[C@@H](C)CC)[C@@H](C)CC [I3] | 14.9456% | 30.5933% |
| CC[C@H](C)[C@H](N)C(=O)N[C@@H](CC(N)=O)C(=O)N[C@@H](CC(C)C)C(=O)N[C@H](C(=O)N[C@@H](C)C(=O)N[C@@H](CC(C)C)C(=O)N[C@@H](C)C(=O)N[C@@H](C)C(=O)N[C@@H](CC(C)C)C(=O)N[C@@H](C)C(=O)N[C@@H](CCCCN)C(=O)N[C@@H](CCCCN)C(=O)N[C@H](C(=O)N[C@@H](CC(C)C)C(N)=O)[C@@H](C)CC)[C@@H](C)CC [I4] | 5.736% | 30.9221% |
| CC[C@H](C)[C@H](N)C(=O)N[C@@H](CC(N)=O)C(=O)N[C@@H](CC(C)C)C(=O)N[C@@H](CCCCN)C(=O)N[C@H](C(=O)N[C@@H](CC(C)C)C(=O)N[C@@H](C)C(=O)N[C@@H](C)C(=O)N[C@@H](CC(C)C)C(=O)N[C@@H](C)C(=O)N[C@@H](CCCCN)C(=O)N[C@@H](CCCCN)C(=O)N[C@H](C(=O)N[C@@H](CC(C)C)C(N)=O)[C@@H](C)CC)[C@@H](C)CC [I5] | 29.3206% | 71.3869% |
| CC[C@H](C)[C@H](N)C(=O)N[C@@H](CC(N)=O)C(=O)N[C@@H](CC(C)C)C(=O)N[C@@H](CCCCN)C(=O)N[C@@H](C)C(=O)N[C@H](C(=O)N[C@@H](C)C(=O)N[C@@H](C)C(=O)N[C@@H](CC(C)C)C(=O)N[C@@H](C)C(=O)N[C@@H](CCCCN)C(=O)N[C@@H](CCCCN)C(=O)N[C@H](C(=O)N[C@@H](CC(C)C)C(N)=O)[C@@H](C)CC)[C@@H](C)CC [I6] | 13.3589% | 31.3138% |
| CC[C@H](C)[C@H](N)C(=O)N[C@@H](CC(N)=O)C(=O)N[C@@H](CC(C)C)C(=O)N[C@@H](CCCCN)C(=O)N[C@@H](C)C(=O)N[C@@H](CC(C)C)C(=O)N[C@H](C(=O)N[C@@H](C)C(=O)N[C@@H](CC(C)C)C(=O)N[C@@H](C)C(=O)N[C@@H](CCCCN)C(=O)N[C@@H](CCCCN)C(=O)N[C@H](C(=O)N[C@@H](CC(C)C)C(N)=O)[C@@H](C)CC)[C@@H](C)CC [I7] | 39.466% | 72.6071% |
| CC[C@H](C)[C@H](N)C(=O)N[C@@H](CC(N)=O)C(=O)N[C@@H](CC(C)C)C(=O)N[C@@H](CCCCN)C(=O)N[C@@H](C)C(=O)N[C@@H](CC(C)C)C(=O)N[C@@H](C)C(=O)N[C@H](C(=O)N[C@@H](CC(C)C)C(=O)N[C@@H](C)C(=O)N[C@@H](CCCCN)C(=O)N[C@@H](CCCCN)C(=O)N[C@H](C(=O)N[C@@H](CC(C)C)C(N)=O)[C@@H](C)CC)[C@@H](C)CC [I8] | 17.9616% | 40.0855% |
